Results as given in ChEMBL document CHEMBL1201862, “PubChem BioAssay data set” (2004).
Calls of active or inactive are those of the source.

Experiments:
Escherichia coli = assay: microbe, parasite or virus in culture
[1] = C. albicans growth with fluconazole, confirmation, fluorescence, retest (AID 2467); format: functional, cell-based
[2] = NIH-3T3 fibroblast cytotoxicity, dose response, cytotoxicity control, cell-based, fluorescence, Alamar Blue, secondary assay (AID 2327); format: functional;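 note: NIH-3T3 mouse fibroblasts cultured with fluconazole at 8 µg/mL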
HEK293 = assay: inhibitors of LMP1-driven NF-kB reporter, dose response, cell-based, HEK293, luciferase, cherry-pick (AID 588343); format: functional; conditions: Homo sapiens
[3] = target: Heat shock protein HSP 90-alpha (Homo sapiens, UniProt P07900); format: functional, organism-based
[4] = Luminescence Cell-Based Dose Response HTS to Identify Inhibitors of 5'UTR Stem-Loop Driven Prion Protein mRNA Translation in H4 Neuroglioblastoma Cells. [Related pubchem assays: 1827 (Project Summary), 1813 (Primary HTS)]; format: functional
[5] = control 3'UTR Renilla luciferase suppression, dose response, counter-screen for Shn3 inhibitor project, cell-based, Clone20-Shn3RL, cherry-picked (AID 624133); format: functional
[6] = target: FAD-linked sulfhydryl oxidase ALR (Homo sapiens, UniProt P55789); assay: inhibitors of human ALR sulfhydryl oxidase, dose response, biochemical, H2O2 detection, luminescence, cherry-pick (AID 493248)
Chain of FAD-linked sulfhydryl oxidase ALR (P55789 whole entry): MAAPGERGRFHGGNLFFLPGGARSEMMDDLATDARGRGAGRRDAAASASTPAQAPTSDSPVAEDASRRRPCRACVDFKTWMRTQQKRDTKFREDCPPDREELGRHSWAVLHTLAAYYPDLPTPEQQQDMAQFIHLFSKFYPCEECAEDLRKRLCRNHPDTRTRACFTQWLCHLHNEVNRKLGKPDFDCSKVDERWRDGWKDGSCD

[7] = inhibitors of firefly luciferase expression or activity, dose response, H4 neuroglioma cells, luminescence (AID 1990); format: functional, cell-based
[8] = HepG2 cell cytotoxicity, dose response, cytotoxicity control for Shn3 inhibitor project, CellTiter-Glo, cherry-picked (AID 624134); format: functional, cell-based
[9] = Shn3 3'UTR reporter inhibitors, dose response, cell-based, Clone20 osteoblasts, firefly luciferase, cherry-picked (AID 624132); format: functional;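 note: firefly luciferase luminescence from reporter carrying the Shn3 3'UTR in osteoblasts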
[10] = inhibitors of SNCA 5'UTR-driven reporter translation, confirmation, H4 neuroglioma cells, luminescence (AID 1988); format: functional, cell-based
Nonstructural protein 1 = Nonstructural protein 1 (Influenza A virus, UniProt Q194T2); format: functional, Influenza A virus (A/California/07/2009(H1N1))
Chain of Nonstructural protein 1 (Q194T2 whole entry): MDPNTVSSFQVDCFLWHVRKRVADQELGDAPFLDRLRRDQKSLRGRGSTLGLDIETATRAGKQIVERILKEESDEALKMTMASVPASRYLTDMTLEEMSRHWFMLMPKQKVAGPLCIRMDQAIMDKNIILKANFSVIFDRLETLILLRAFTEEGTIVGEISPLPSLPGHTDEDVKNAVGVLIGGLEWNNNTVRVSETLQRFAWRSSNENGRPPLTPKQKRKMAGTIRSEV

[11] = target: T1, Mannose-6-phosphate isomerase (Homo sapiens, UniProt P34949); assay: human PMI inhibitors, high substrate, primary screen, biochemical, fluorescence intensity, high mannose 6-phosphate (AID 1220)
T1 sequence (P34949 whole entry): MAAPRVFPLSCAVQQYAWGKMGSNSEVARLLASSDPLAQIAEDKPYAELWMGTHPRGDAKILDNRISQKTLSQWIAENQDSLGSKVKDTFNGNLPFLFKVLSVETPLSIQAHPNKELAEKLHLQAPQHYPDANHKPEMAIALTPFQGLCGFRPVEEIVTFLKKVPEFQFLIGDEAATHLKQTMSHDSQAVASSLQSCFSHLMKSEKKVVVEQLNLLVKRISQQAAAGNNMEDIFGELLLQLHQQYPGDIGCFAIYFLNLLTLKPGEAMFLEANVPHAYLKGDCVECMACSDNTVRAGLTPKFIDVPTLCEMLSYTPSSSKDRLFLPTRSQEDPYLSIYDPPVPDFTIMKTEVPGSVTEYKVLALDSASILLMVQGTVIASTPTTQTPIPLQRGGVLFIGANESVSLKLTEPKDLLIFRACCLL

[12] = target: Glucose-6-phosphate 1-dehydrogenase (Homo sapiens, UniProt P11413); assay: human G6PD enzyme inhibitors, dose response, selectivity assay for P. falciparum G6PD inhibitor project, biochemical, fluorescence (AID 504792); format: functional
Chain of Glucose-6-phosphate 1-dehydrogenase (P11413 whole entry): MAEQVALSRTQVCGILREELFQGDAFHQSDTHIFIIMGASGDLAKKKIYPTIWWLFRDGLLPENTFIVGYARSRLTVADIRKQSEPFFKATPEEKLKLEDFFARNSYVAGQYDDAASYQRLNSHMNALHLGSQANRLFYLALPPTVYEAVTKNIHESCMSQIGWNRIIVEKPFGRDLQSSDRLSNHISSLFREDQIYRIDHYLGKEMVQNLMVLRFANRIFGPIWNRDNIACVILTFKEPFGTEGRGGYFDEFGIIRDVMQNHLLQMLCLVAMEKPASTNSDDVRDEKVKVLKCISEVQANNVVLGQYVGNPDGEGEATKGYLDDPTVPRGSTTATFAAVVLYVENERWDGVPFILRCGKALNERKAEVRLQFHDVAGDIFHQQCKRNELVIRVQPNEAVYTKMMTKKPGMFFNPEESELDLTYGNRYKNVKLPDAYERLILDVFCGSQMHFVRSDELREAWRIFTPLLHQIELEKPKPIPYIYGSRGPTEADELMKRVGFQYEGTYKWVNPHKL

[13] = target: T2, Adenosylmethionine-8-amino-7-oxononanoate aminotransferase (Mycobacterium tuberculosis, UniProt P9WQ81); assay: Mycobacterium tuberculosis BioA enzyme inhibitor Measured in Biochemical System Using Plate Reader - 2163-02_Inhibitor_Dose_CherryPick_Activity.; format: functional, Mycobacterium tuberculosis UT205
T2 sequence (P9WQ81 whole entry): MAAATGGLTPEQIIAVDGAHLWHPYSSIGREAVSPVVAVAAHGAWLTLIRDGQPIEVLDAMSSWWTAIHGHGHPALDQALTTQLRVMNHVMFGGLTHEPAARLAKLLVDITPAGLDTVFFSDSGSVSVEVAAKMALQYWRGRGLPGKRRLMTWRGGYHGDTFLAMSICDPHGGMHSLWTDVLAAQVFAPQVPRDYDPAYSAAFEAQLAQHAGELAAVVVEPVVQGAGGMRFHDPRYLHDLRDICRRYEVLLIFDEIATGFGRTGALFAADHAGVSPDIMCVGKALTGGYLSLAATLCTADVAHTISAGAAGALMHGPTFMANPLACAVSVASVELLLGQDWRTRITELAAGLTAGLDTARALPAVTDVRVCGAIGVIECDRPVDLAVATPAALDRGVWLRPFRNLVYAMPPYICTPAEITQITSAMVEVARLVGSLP

Streptokinase A = target: T3, Streptokinase A (Streptococcus pyogenes serotype M1, UniProt P10520); assay: S. pyogenes streptokinase expression inhibitors, potency, dose response, plasminogen activation absorbance, OD405 (AID 1914); format: functional, Streptococcus pyogenes M1 GAS;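 note: secreted streptokinase activity via plasminogen activation per viability signal from cell pellet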
T3 sequence (P10520 whole entry): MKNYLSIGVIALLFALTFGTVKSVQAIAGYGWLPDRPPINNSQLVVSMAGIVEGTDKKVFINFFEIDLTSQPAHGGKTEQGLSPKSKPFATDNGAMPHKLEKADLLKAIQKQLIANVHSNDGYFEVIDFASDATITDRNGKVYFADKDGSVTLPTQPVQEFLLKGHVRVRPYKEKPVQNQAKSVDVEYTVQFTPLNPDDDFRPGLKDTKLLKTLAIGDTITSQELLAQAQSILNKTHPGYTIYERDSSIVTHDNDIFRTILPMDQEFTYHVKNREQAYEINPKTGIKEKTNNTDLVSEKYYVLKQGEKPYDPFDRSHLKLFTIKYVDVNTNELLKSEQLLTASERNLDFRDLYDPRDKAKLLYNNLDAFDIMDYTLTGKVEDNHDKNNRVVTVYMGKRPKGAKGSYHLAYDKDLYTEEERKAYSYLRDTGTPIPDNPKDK

Vero = assay: cells; format: functional; conditions: Chlorocebus sabaeus
[14] = inhibitors of intracellular T. cruzi replication, confirmation, NIH3T3 host cells, beta-gal luminescence (AID 2044); format: functional, cell-based;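 note: intracellular parasites grown in NIH/3T3 mouse fibroblasts as host cells; luminescent beta-galactosidase reporter signal from transgenic T. cruzi replicating inside host cells; inhibitors lower the luminescence signal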
INS1 = assay: beta cell apoptosis inhibitors, cytokine rescue, dose response, luminescence, retest (AID 449756); format: functional, cell-based; conditions: Rattus norvegicus;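 note: cell death triggered by IL-1 beta plus TNF-alpha plus IFN-gamma mixture; protective hits raise ATP signal compared with cytokine alone wells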
Streptococcus = assay: Group A Streptococcus viability loss, dose response, counter-screen for streptokinase expression inhibitor project, luminescence, BacTiterGlo (AID 1915); format: functional, organism-based;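 note: potency for reduction of bacterial viability or growth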
[15] = cytotoxicity toward NIH3T3 fibroblasts, dose response, counter-screen, cell-based, ATP luminescence, mouse fibroblasts (AID 2010); format: functional;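 note: cells exposed to compound for about 90 hours before reading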
[16] = Luminescence Cell-Based Dose Retest to Confirm Inhibitors of Cancer Stem Cells. [Related pubchem assays (depositor defined):AID2717, AID2721]; format: functional; conditions: Homo sapiens
[17] = test system: Streptococcus sp. 'group A'; assay: growth inhibition of control SK(-) GAS strain, dose response, counter-screen for streptokinase expression inhibitor project, luminescence, kanamycin, BacTiterGlo, confirmation (AID 1900); format: functional, organism-based

O=C(COC(=O)Cn1cnc2ccccc2c1=O)NCC12CC3CC(CC(C3)C1)C2
AC50 (Escherichia coli): 32.8 µM (active)

O=C(Oc1c(Cl)cc(Cl)c2cccnc12)c1cccc([N+](=O)[O-])c1
EC50 [1]: 0.119 µM (active) | EC50 [2]: 5.41 µM (active) | AC50 (HEK293): 30.6 µM (active) | AC50 [3]: 14.3 µM (active)

COc1ccc(OC)c(S(=O)(=O)NCCc2ccccc2)c1
AC50 (Escherichia coli): 28.4 µM (active)

Cc1ccc(S(=O)(=O)Nc2ccc(O)c3ncccc23)cc1
EC50 [1]: 2.12 µM (inconclusive) | EC50 [4]: > 30 µM (not active) | EC50 [2]: 28.4 µM (active) | AC50 [5]: 0.715 µM (active) | AC50 [6]: 5.2 µM (active) | EC50 [7]: 15.1 µM (active) | AC50 [8]: 41.4 µM (active) | AC50 [9]: 1.55 µM (active) | EC50 [10]: 10.6 µM (active) | IC50 (Nonstructural protein 1): 16 µM (active)

C=CCOc1ccc(CNc2ccc3[nH]c(O)nc3c2)cc1OC
IC50 [11]: > 50 µM (not active) | IC50 [12]: 53.4 µM (inactive)

O=C(c1ccncc1)N1CC[C@@H]2[C@H]1c1cc(Br)ccc1N[C@@H]2CO
AC50 [13]: 0.894 µM (active)

O=C(c1ccncc1)N1CC[C@@H]2[C@H](CO)Nc3ccc(Br)cc3[C@@H]21
AC50 [13]: 1.17 µM (active)

O=C(NCc1nc(-c2ccc(C(F)(F)F)cc2)no1)Nc1cc(Cl)cc(Cl)c1
EC50 (Streptokinase A): > 150 µM (not active) | CC50 (Vero): 8.95 µM (active) | EC50 [14]: 2.43 µM (active) | AC50 (INS1): 7.49 µM (active) | EC50 (Streptococcus): 8.49 µM (active) | EC50 [15]: 4.69 µM (active) | AC50 [16]: 1.53 µM (active) | EC50 [17]: 2.88 µM (active)

C[C@@H]1C(c2ccc(F)cc2)=NN(c2ccccc2)[C@H]1C(=O)N1CCOC1=O
AC50 (Escherichia coli): 33.5 µM (active)
